# Assay results reported in patent US12692259B2, “Morpholine-containing and piperazine-containing CXCR4 modulators and uses related thereto” (Emory University, priority 2021, dated 2026).
# Columns and labels:
# CYP450 isoforms 3A4 = CYP450 isoforms 3A4 (Homo sapiens, UniProt P08684); settings: cited from earlier work
# CYP450 isoforms 2D6 = CYP450 isoforms 2D6 (Homo sapiens, UniProt P10635); settings: cited from earlier work
# CYP2D6 = target: T1, CYP2D6 (Homo sapiens, UniProt P10635); test: Fluorometric CYP450 inhibition assay, CYP2D6; type: in vitro ADME; settings: read-out: CYP450 IC50 (μM) 2D6
# T1 construct: purchased Corning; host or cells: insect cells (microsomes)
# Method: (§1) The CYP450 inhibition assays utilized microsomes from insect cells expressing human recombinant individual cDNA-expressed CYP isoforms 3A4 and 2D6, as well as the fluorogenic probe that produces fluorescent metabolite. Standard inhibitors were co-incubated with fluorogenic substrates and their inhibitory potential (IC50) was determined. Assay conditions in terms of CYP450 protein concentration and time of incubation were standardized, enzyme kinetics parameters of each fluorescent probe substrate were estimated and IC50 values of inhibitors were determined and validated on different days to check reproducibility.
# (§2) A 100 mM sodium phosphate buffer was prepared and adjusted to pH 7.4. In a separate falcon tube, a 2× enzyme/substrate (E/S) solution was prepared in phosphate buffer. The final concentration of CYP2D6 (CORNING®) and 7-amido-4-methyl coumaric acid (AMMC) was 10 nM and 4 μM, and CYP3A4 (CORNING®) and 7-benzyloxy-4-(trifluoromethyl) coumarin (BFC) was 20 nM and 40 μM, respectively. In a separate falcon tube, a 2×NADPH regenerating system (NRS) was prepared in phosphate buffer.
# (§3) Both enzymatic assays were conducted in a 96-well microtiter plate (Black, CORNING® COSTAR®) with a final volume of 100 μL. Preparation of the plate began with the addition of 74 μL of the E/S in the first well, and 50 μL to all subsequent wells (from 2-11). […] A 1:3 serial dilution of the test compound was conducted by removing 25 μL from the first well and diluting it with the second and so forth until the tenth row. Final concentrations yielded a range from 200 μM-0.01 μM. Well no. 11 contained no inhibitor, and well no. 12 contained no enzyme. Both were used as controls for background fluorescence. The plate was incubated for 30 min at 37° C. After incubation, the reaction was initiated by the addition of 50 μL of the 2×NRS to each well.
# (§4) Immediately (within 1 min) the fluorescence was measured using a microplate reader (BIOTEK® Synergy Neo2). […] Data was exported and analyzed using Graph Pad Prism 7. […] The IC50 value was derived after the data was fitted on a 10-point curve using a four-parameter logistic regression model.
# CYP3A4 = target: T2, CYP3A4 (Homo sapiens, UniProt P08684); test: Fluorometric CYP450 inhibition assay, CYP3A4; type: in vitro ADME; settings: read-out: CYP450 IC50 (μM) 3A4
# T2 construct: purchased Corning; host or cells: insect cells (microsomes)
# Method: as §1, §2, §3, §4
# CXCR4 [1] = target: T3, CXCR4 (Homo sapiens, UniProt P61073); test: Calcium flux assay (antagonist mode, SDF-1α challenge); type: cell-based; parameters: Eurofins or Bristol Myers Squibb (contract assay); settings: read-out: CXCR4 Ca^+2 Flux IC50
# Method: Calcium flux assay was performed by Eurofins or Bristol Myers Squibb. The method used by Eurofins is described below.
# Compound plate preparation: Vehicle controls and positive controls were prepared to ensure all assays were properly controlled. All wells were prepared using the Eurofins Discovery Services GPCRProfiler® Assay Buffer. The GPCRProfiler® Assay Buffer was a modified Hanks Balanced Salt Solution (HBSS) where HBSS was supplemented to contain 20 mM HEPES and 2.5 mM Probenecid at pH 7.4.
# Agonist assay (first addition): Compound(s) supplied were plated in duplicate for each concentration assayed. During the agonist assay, the concentration(s) reflects accommodation for the dilution of compound during the antagonist assay. Please see below for further details. […] The reference agonist for each GPCR was included at Emax (the concentration where the reference agonist elicited a maximal response). The agonist assay was conducted on a FLIPR^TETRA instrument where the test compound(s), vehicle controls, and reference agonist were added to the assay plate after a fluorescence/luminescence baseline was established. The agonist assay was a total of 180 seconds and was used to assess each compound's ability to activate each GPCR assayed. Upon completion of the three minute agonist assay, the assay plate was incubated at 25° C. for a further two minutes. After the incubation period the antagonist assay was initiated.
# The antagonist assay was conducted using the same assay plate that was used for the agonist assay. The antagonist assay was conducted on a FLIPR^TETRA instrument where vehicle controls and challenge concentration of reference agonist were added to appropriate wells. The antagonist assay was a total of 180 seconds and was used to assess each compound's ability to inhibit each GPCR assayed.
# Data Processing—All plates were subjected to appropriate baseline corrections. Once baseline corrections were processed, maximum fluorescence/luminescence values were exported, and data manipulated to calculate percentage activation and percentage inhibition. […] Data manipulation calculation is as followed: ((Max RLU)−(Baseline Avg.))/((Positive Avg.)−(Baseline Avg.)).
# PAMPA assay = type: in vitro ADME; settings: pH 7.4
# Method: PAMPA assay was performed by BioAssay Systems Services or Bristol Myers Squibb. The method used by BioAssay Systems Services is described below.
# Stock solutions in DMSO for all compounds (10 mM) were thawed. The assay was performed in duplicate by following the PAMPA-096 procedure for sample plating. 4% Lecithin in dodecane solution was prepared by resuspending the dried lecithin with 750 μL dodecane. PBS pH 7.4 was used as the diluent. Two sets of plates and equilibrium solutions were incubated for 4 hours at room temperature. Acceptor and equilibrium solutions were analyzed in a UV plate. OD280 nm was used for High Permeability Control (chloramphenicol). OD270 nm was used for Medium Permeability Control (diclofenac) and Low Permeability Control (theophylline). OD254 nm was used for the test compounds.
# Data analysis was performed by using the peak absorbance for each respective test compound and Permeability Control to determine the Permeability Rate (Pe) via the following equation: […]
# where ODA is the absorbance of Acceptor Solution, ODE is the absorbance of the Equilibrium Standard, and C is determined by the equation below: […]
# where Donor Volume (VD) is 0.2 cm^3, Acceptor Volume (VA) is 0.3 cm^3, and Membrane Area (Area) is 0.24 cm^2.
# in vitro = settings: mouse, 10 min, 3 µM, pH 7.4
# Method: Metabolic stability assay was performed at Emory University's Department of Chemistry or by Bristol Myers Squibb. The method used by Emory University's Department of Chemistry is described below.
# Each method was developed in the presence of an internal standard (ISTD) d5-7-ethoxy coumarin. The column temperature was maintained at 40° C. for most of the samples otherwise noted. The detection was operated in the Agilent JetStream electrospray positive ionization using multiple reaction monitoring mode (MRM).
# Other MS conditions were as follows: dwell time 100 ms; gas flow 10 L/min; nebulizer pressure 45 psi; delta EMV 200 V; fragmentor voltage and collision energy for individual compounds vary.
# Test compounds were dissolved in 100% DMSO or 100% MeOH to make 10 mM stock solutions. Verapamil (Sigma Aldrich) aided as a positive control and was dissolved in 100% DMSO to make 10 mM stock solutions. The 10 mM stock solution of test and control compounds were further diluted in potassium phosphate buffer (100 mM, pH 7.4) to 500 μM to ensure the organic solvent content was <0.2%. Human liver microsomes (HLMs) were purchased from Xenotech at 20 mg/mL. NADPH (Sigma Aldrich) 10 mM stocks were prepared in deionized water.
# The HLM assay was prepared in a 1.5 mL Eppendorf tube with a final volume of 1100 μL for duplicate runs. Each reaction contained phosphate buffer (928.4 μL), liver microsomes (55 μL), and test compound resulting in a final concentration of 3 μM (6.6 μL of 500 μM). The reaction was initiated with 110 μL of 10 mM NADPH. […] Before centrifugation each of the aliquoted tubes were vortexed to make sure compounds were in the solution. The aliquots were centrifuged at 12,000 g for 5 min and the supernatant removed and placed in an LC-MS vial. Each time point was assessed using LC-MS and the area, based on the extracted ion, was integrated with respect to the ISTD. […] A no-NADPH negative control with test or control compound was performed in a single run (150 μL) at the longest time point. Controls were processed and analyzed like the test compounds. Each time point was run in duplicates followed by in-between blank washes to avoid the carryover and to equilibrate the column.
# The MLM assay was performed using the same procedures as those described above for the HLM assay.
# [2] = Metabolic stability assay, human liver microsomes (HLM); type: in vitro ADME; settings: 10 min
# Source text: Controls were processed and analyzed like the test compounds.
# CXCR4 [3] = target: T3, CXCR4; test: cAMP assay in CXCR4-CHO-Glo cells (GloSensor, forskolin + SDF-1α); type: cell-based; parameters: expressed in transfected cells
# Source text: Materials, reagents, and instrument—Advanced DMEM (Gibco), trypsin EDTA (0.05%, phenol red), L-glutamine, HBSS buffer with and without Ca^2+/Mg^2+ (Gibco), antibiotic-antimycotic (Gibco), hygromycin B, and geneticin selective antibiotic (G418 sulfate) were purchased from Invitrogen. Forskolin (Tocris), SDF-1α (R&D Systems), HEPES (Sigma Aldrich), FBS (Atlanta Biologicals), D-luciferin (Gold Biotechnology), sterile 60 mm tissue culture dishes, and 96-well sterile tissue culture plates were purchased from Corning.
# The assay targeted CXCR4 expressed in CHO-gloSensor cells. It monitored GPCR activation based on forskolin-stimulated cAMP production in cells. The assay used a genetically encoded biosensor with its cAMP binding domain fused to luciferase. Binding of cAMP to the cAMP binding domain changed the conformation of the biosensor, leading to the activation of luciferase. The intensity of the luciferase signal (light output) resulted from the oxidation of D-luciferin to oxyluciferin is proportional to the amount of cAMP produced in the cells.
# The assay was performed in triplicate using live cells in 96-well tissue culture plates. Cells were pre-incubated in the dark at room temperature for one hour in the presence of D-luciferin. Bioluminescence was quantified before and after the agonist/antagonist addition. Stock solution of forskolin and SDF-1a, was prepared in Locke-Luc buffer. Stock solutions of the test compounds were prepared in DMSO (10 mM); they were diluted by Locke's buffer for use in the assay.
# CHO-Glo cells, a cell line stably expressing the GloSensor cAMP biosensor (Promega), were transfected with cDNA encoding human CXCR4 in Pires-AcGFP1 (Clontech) and a stable cell line was isolated (CXCR4-CHO-Glo cells). The CXCR4-CHO-Glo cells were grown to confluency on 60 mm tissue culture dishes. After trypsinization, the cells were plated on 96-well plates and incubated overnight. The next day, culture media in each well was aspirated and replaced with 100 μL Locke's buffer containing 4 mM D-luciferin, followed by incubation in the dark for one hour. Before the addition of agonist/antagonist, each plate was read five times at 2 min intervals to obtain basal bioluminescence values from each well. The average of these five pre-readings was used to normalize each well's response to account for differences in GloSensor expression and cell density. After five pre-readings, cAMP formation was initiated with the addition of 50 μL solution of test compound (TC) in Locke Luc buffer containing forskoline and SDF-1α. […] Luminescence was measured immediately after the addition of the antagonist solution. The measurements were taken every two minutes for 30 minutes in kinetics mode after antagonist addition. IC50 values were calculated from the 4-parameter logistic equation using Prism GraphPad.
# T1 sequence (P10635 whole entry): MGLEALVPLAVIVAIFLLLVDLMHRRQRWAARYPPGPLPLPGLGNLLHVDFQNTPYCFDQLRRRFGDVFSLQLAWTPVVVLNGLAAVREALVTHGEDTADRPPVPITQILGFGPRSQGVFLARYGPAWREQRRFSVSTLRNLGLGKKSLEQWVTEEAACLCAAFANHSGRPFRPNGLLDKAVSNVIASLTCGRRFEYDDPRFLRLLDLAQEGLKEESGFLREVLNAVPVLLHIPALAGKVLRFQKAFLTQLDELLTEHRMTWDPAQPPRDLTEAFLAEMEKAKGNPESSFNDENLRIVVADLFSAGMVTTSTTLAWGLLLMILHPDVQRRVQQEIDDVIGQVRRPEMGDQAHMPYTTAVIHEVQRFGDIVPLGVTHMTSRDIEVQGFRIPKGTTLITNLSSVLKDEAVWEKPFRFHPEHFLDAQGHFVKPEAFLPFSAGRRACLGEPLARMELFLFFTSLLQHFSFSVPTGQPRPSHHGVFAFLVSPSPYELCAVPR
# T3 sequence (P61073 whole entry): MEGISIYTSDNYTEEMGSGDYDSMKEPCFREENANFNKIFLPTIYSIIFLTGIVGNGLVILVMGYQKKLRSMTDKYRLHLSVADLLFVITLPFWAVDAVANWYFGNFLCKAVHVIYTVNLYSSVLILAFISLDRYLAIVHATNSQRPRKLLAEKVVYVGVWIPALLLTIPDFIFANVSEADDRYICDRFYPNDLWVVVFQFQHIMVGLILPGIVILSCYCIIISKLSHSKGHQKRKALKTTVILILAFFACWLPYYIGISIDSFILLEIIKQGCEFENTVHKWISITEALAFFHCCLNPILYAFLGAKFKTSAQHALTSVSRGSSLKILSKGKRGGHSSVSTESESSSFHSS
# T2 sequence (P08684 whole entry): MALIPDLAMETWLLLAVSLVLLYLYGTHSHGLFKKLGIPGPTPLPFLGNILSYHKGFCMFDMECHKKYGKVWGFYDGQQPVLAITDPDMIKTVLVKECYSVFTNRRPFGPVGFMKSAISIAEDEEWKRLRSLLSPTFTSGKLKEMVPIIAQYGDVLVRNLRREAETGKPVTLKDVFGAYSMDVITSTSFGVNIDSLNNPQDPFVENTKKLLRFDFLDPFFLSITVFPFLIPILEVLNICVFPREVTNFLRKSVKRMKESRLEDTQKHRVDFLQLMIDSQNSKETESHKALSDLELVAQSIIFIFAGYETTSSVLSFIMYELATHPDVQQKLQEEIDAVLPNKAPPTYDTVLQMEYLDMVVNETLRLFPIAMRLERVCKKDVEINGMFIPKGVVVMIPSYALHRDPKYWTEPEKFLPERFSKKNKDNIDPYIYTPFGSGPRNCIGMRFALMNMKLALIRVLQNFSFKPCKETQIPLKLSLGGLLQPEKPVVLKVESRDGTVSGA
# CYP450 isoforms 2D6, sequence (P10635 whole entry, canonical isoform): as the sequence (P10635 whole entry) above
# CYP450 isoforms 3A4, sequence (P08684 whole entry, canonical isoform): as the sequence (P08684 whole entry) above
IC50 (CYP2D6),IC50 (CYP3A4),IC50 (CXCR4 [1]),Papp at 4 h (PAMPA assay),Liver Microsomes % rem. @ 10 min. M (in vitro),Liver Microsomes % rem. @ 10 min. H [2],IC50 (CXCR4 [3]),SMILES,inhibition of CYP450 isoform 3A4 (CYP450 isoforms 3A4),inhibition of CYP450 isoform 2D6 (CYP450 isoforms 2D6)
,,,,,,,"NCCCCN(Cc1nc2ccccc2[nH]1)[C@H]1CCCc2cccnc21 [AMD11070, mavorixafor]",significant inhibition,significant inhibition
0.44 µM,> 20 µM,0.0825 µM,21.2 ×10⁻⁶ cm/s,3.68%,52.6%,,c1ccc2c(c1)CN[C@@H](CN(CCCCN1CCOCC1)[C@H]1CCCc3cccnc31)C2 [EMU-178],,
> 20 µM,> 20 µM,0.27 µM,21.5 ×10⁻⁶ cm/s,19.6%,100%,,"c1cnc2c(c1)CN[C@H](CN(CCCCN1CCOCC1)[C@@H]1CCCc3cccnc31)C2 [EMU-204, (R)—N-(4-morpholinobutyl)-N—(((S)-5,6,7,8-tetrahydro-1,6-naphthyridin-7-yl)methyl)-5,6,7,8-tetrahydroquinolin-8-amine]",,
> 20 µM,> 20 µM,,,66.4%,35.6%,2.32 µM,CN(C[C@H]1Cc2c(cccc2N2CCN(C(=O)OCc3ccccc3)CC2)CN1)[C@H]1CCCc2cccnc21 [EMU-291],,
